Results published in patent US12570610B2, “Macromolecule-supported aminobenzazepine compounds” (Bolt Biotherapeutics, Inc., priority 2019, dated 2026).

Key:
human TLR7 = target: T1, human TLR7 (Homo sapiens, UniProt Q9NYK1); assay: HEK293 NFKB reporter cells expressing human TLR7 (HEK Reporter Assay); assay type: cell-based; conditions: read-out: HEK293 hTLR7 EC50
T1 construct: host or cells: HEK293 reporter cells
T1 sequence (Q9NYK1 27-1049): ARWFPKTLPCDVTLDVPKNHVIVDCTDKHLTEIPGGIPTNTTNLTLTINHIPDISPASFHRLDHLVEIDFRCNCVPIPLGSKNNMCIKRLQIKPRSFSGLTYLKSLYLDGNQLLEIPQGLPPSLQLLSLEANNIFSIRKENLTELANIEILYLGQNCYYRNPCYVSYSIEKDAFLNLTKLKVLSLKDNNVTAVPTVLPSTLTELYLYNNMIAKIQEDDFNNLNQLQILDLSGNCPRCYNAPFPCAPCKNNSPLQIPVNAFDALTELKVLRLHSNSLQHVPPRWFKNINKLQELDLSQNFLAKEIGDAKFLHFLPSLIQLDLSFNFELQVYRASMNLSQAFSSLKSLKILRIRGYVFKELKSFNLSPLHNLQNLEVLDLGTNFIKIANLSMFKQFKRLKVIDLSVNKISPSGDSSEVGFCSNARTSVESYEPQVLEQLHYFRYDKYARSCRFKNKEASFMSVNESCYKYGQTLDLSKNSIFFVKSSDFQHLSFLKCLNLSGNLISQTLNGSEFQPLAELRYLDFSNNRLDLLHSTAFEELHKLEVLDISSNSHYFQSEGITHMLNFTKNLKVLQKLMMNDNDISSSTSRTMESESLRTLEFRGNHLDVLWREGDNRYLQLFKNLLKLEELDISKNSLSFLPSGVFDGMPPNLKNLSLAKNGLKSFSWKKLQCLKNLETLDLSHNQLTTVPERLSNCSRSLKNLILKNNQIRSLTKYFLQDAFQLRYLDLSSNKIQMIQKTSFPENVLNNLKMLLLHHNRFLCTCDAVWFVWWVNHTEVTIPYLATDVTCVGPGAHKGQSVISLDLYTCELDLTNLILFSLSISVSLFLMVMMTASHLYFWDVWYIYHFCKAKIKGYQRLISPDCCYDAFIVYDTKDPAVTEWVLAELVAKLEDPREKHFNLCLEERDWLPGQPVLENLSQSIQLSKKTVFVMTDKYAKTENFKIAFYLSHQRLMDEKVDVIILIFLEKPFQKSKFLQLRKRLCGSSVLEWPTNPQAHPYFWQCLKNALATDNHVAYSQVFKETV
Protocol: (§1) Each compound was synthesized and purified by the methods in the Examples provided herein, characterized by mass spectrometry, and shown to have the mass indicated. Activity against HEK293 NFKB reporter cells expressing human TLR7 or human TLR8 was measured according to method described in Example 67.
(§2) Example 67: HEK Reporter Assay
(§3) HEK293 reporter cells expressing human TLR7 or human TLR8 were purchased from Invivogen and vendor protocols were followed for cellular propagation and experimentation. Briefly, cells were grown to 80-85% confluence at 5% CO2 in DMEM supplemented with 10% FBS, Zeocin, and Blasticidin. Cells were then seeded in 96-well flat plates at 4×10^4 cells/well with substrate containing HEK detection medium and immunostimulatory molecules. Activity was measured using a plate reader at 620-655 nm wavelength.

human TLR8 = target: T2, human TLR8 (Homo sapiens, UniProt Q9NR97); assay: HEK293 NFKB reporter cells expressing human TLR8 (HEK Reporter Assay); assay type: cell-based; conditions: read-out: HEK293 hTLR8 EC50
T2 construct: host or cells: HEK293 reporter cells
T2 sequence (Q9NR97 27-1041): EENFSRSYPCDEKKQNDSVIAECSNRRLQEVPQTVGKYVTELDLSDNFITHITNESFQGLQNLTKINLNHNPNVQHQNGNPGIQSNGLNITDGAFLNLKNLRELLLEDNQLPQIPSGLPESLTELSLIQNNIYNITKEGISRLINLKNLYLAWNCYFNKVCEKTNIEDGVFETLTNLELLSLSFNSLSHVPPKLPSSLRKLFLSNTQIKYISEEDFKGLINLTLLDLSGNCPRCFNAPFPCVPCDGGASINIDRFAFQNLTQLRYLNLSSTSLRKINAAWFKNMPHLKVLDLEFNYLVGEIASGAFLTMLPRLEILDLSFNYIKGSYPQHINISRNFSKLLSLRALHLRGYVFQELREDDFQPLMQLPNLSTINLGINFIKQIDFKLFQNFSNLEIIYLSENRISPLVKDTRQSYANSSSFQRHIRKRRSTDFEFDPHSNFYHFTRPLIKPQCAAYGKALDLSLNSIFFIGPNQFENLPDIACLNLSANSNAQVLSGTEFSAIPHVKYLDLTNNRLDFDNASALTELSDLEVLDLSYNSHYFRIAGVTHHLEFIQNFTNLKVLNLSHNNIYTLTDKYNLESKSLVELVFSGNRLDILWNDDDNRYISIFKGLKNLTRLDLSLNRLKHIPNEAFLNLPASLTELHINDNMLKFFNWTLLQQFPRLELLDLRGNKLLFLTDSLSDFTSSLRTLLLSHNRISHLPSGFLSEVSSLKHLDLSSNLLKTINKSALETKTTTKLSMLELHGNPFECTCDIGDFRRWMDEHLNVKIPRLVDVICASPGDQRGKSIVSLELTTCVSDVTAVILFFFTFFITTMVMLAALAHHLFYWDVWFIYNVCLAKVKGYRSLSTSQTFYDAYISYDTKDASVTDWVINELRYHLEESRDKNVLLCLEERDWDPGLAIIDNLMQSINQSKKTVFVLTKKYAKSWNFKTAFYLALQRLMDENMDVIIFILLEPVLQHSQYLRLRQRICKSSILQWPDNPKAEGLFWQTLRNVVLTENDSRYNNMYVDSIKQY
Protocol: as §1, §2, §3

SMILES | EC50 (human TLR7) | EC50 (human TLR8)
CCCN(CCC)C(=O)C1=Cc2ccc(-c3cccc(S(=O)(=O)NC(=O)c4ccccc4)c3)cc2N=C(N)C1 [Bz-37] | > 9 µM | > 9 µM
CCCN(CCc1c[nH]cn1)C(=O)C1=Cc2ccc(-c3cccc(S(=O)(=O)N4CC(CO)C4)c3)cc2N=C(N)C1 [Bz-41] | > 9 µM | > 9 µM
CCCN(Cc1ccc(CN2CCN(C(=O)OC(C)(C)C)CC2)cc1)C(=O)C1=Cc2ccc(-c3cccc(S(=O)(=O)N4CC(CO)C4)c3)cc2N=C(N)C1 [Bz-44] |  | 1.02 µM
CCCNC(=O)C1=Cc2ccc(-c3cccc(S(=O)(=O)N4CC(CO)C4)c3)cc2N=C(N)C1 [Bz-58] | > 9 µM | > 9 µM
CCCN(Cc1ccc(CN)cc1)C(=O)C1=Cc2ccccc2N=C(N)C1 [Bz-59] | > 9 µM | 
CCCN(CCc1ccc(OC)cc1)C(=O)C1=Cc2ccc(-c3cccc(S(=O)(=O)N4CC(CN)C4)c3)cc2N=C(N)C1 [Bz-61] | > 9 µM | 5.85 µM
CCCN(Cc1ccc(CN(C)C)cc1)C(=O)C1=Cc2ccc(-c3cccc(S(=O)(=O)N4CC(CN)C4)c3)cc2N=C(N)C1 [Bz-62] | > 9 µM | > 9 µM
CCCN(CCC)C(=O)C1=Cc2ccc(C(=O)COC)cc2N=C(N)C1 [Bz-65] | 3.93 µM | 5.9 µM
CCCN(NCC)C(=O)C1=Cc2ccc(-c3cccc(S(=O)(=O)N4CC(CO)C4)c3)cc2N=C(N)C1 [Bz-71] | > 9 µM | 
CCCN(CCC(F)(F)F)C(=O)C1=Cc2ccc(C(=O)Nc3ccccc3)cc2N=C(N)C1 [Bz-75] | > 9 µM | 

The next lines start with the values.

EC50 (human TLR7) | EC50 (human TLR8) | SMILES
> 9 µM | > 9 µM | CCCN(CCC)C(=O)C1=Cc2ccc(-c3cccc(S(=O)(=O)Nc4nccs4)c3)cc2N=C(N)C1 [Bz-35]
0.332 µM | > 9 µM | CCCN(CCC)C(=O)C1=Cc2ccc(-c3cc(C(F)(F)F)cc(S(=O)(=O)N4CC(CN(C)C)C4)c3)cc2N=C(N)C1 [Bz-40]
> 9 µM |  | CCCN(CCC)C(=O)C1=Cc2ccc(-c3c(C)n[nH]c3C)cc2N=C(N)C1 [Bz-45]
 | > 9 µM | CCN(CC)C(=O)C1=Cc2ccc(-c3cccc(S(=O)(=O)N4CC(CO)C4)c3)cc2N=C(N)C1 [Bz-50]
> 9 µM |  | CCCN(CCOC)C(=O)C1=Cc2ccc(-c3cccc(S(=O)(=O)N4CC(CO)C4)c3)cc2N=C(N)C1 [Bz-60]
> 9 µM |  | CCCN(CCC)C(=O)C1=Cc2ccc(CCCCCN)cc2N=C(N)C1 [Bz-74]
